Assay results reported in US20080234262A1 (Wyeth, priority 2007, published 2008).
Like-named read-outs stand apart in the source and are kept apart here.

Experiments:
breast line MDA468 = experiment: In vitro cell culture growth assay (MTS), MDA468; type: cell-based, human; conditions: MDA468 cells, three days after drug treatment
How it was run: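 MDA468 or LNCap cells received inhibitors one day after plating and were grown for three days. Viable cell density read by MTS conversion, absorbance 490 nm, expressed as percent of control growth versus vehicle-treated cells on the same plate.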

PI3K = PI3K (Homo sapiens, UniProt P42336); experiment: Fluorescence polarization assay for PI3K; type: biochemical;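 also: PI3K kinase reaction on PIP2 with ATP, 30-60 min, product sensed by GST-GRP with red probe in fluorescence polarization (mP), controls without enzyme and at zero time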
prostate line LNCap = experiment: In vitro cell culture growth assay (MTS), LNCap; type: cell-based, human; conditions: LNCap cells, three days after drug treatment

Sequence of PI3K (P42336 whole entry): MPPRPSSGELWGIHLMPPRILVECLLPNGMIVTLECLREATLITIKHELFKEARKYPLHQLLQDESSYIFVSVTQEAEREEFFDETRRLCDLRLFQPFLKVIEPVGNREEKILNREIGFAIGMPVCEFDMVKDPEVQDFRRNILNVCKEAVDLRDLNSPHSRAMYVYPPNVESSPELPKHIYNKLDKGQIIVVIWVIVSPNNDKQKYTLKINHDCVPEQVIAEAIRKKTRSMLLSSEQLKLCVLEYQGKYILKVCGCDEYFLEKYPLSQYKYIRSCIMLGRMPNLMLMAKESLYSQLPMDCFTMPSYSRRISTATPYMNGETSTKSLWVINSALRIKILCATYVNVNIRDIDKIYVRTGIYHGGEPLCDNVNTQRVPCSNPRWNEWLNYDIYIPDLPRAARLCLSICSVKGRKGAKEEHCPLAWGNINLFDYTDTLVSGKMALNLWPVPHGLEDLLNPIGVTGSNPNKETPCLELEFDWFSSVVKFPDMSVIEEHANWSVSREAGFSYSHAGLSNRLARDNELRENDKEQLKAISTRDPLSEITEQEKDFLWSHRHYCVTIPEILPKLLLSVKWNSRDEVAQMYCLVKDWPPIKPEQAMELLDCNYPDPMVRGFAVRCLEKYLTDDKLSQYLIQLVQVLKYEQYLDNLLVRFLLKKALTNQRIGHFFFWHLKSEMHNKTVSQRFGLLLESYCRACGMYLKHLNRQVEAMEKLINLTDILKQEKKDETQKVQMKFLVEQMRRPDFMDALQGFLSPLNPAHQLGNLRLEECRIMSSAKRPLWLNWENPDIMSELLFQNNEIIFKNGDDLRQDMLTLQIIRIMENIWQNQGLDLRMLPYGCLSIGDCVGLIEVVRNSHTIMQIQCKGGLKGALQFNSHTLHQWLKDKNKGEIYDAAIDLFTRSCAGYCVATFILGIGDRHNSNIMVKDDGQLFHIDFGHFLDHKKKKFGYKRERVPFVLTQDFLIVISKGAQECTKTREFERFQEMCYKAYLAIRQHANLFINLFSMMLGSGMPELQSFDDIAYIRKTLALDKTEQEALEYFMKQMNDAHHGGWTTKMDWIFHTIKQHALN
Sequence of PI3K (P27986 whole entry partner): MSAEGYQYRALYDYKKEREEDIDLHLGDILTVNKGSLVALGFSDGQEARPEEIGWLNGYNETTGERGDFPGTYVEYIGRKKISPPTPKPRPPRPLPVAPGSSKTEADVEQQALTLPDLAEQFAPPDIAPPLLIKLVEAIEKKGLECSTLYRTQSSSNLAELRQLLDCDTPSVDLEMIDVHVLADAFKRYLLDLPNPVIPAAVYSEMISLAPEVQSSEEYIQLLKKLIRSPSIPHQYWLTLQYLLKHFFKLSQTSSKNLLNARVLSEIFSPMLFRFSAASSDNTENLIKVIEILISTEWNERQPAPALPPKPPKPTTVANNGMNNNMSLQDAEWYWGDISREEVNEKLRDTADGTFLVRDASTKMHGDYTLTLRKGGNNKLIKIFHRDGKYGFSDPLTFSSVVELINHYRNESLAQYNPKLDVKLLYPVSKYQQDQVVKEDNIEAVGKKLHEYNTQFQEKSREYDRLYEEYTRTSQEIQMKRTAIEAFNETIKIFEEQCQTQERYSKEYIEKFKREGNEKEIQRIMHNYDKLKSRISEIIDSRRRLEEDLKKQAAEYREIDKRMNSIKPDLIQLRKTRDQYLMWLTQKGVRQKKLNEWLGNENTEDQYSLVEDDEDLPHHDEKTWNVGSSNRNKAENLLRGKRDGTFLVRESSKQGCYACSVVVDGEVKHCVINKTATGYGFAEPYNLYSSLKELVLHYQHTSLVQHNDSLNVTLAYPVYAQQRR

Row | IC50 (PI3K; PI3Kα, read-out: PI3Kα IC50) [nM] | IC50 (prostate line LNCap; Homo sapiens, LNCaP, 72 h) [nM] | IC50 (prostate line LNCap) [nM] | SMILES | IC50 (breast line MDA468; Homo sapiens, 72 h) [nM] | IC50 (breast line MDA468) [nM] | IC50 (PI3K; read-out: PI3Kα IC50, PI3Kα) [nM] | IC50 (PI3K; PI3Kα IC50, PI3Kα) [nM] | IC50 (prostate line LNCap; Homo sapiens, 72 h) [nM]
1 | 885 | 5300 |  | CN1CCC(C(=O)Nc2ccc(-c3nc(N4CCOCC4)c4cn[nH]c4n3)cc2)CC1 [Compound 530, 1-methyl-N-[4-(4-morpholin-4-yl-1H-pyrazolo[3,4-d]pyrimidin-6-yl)phenyl]piperidine-4-carboxamide] | 22000 |  |  |  | 
2 | 71 | 400 |  | CNC(=O)Nc1ccc(-c2nc(N3CCOCC3)c3cnn(C4CCN(C(=O)N5CCN(C)CC5)CC4)c3n2)cc1 [Compound 578, 1-methyl-3-[4-(1-{1-[(4-methylpiperazin-1-yl)carbonyl]piperidin-4-yl}-4-morpholin-4-yl-1H-pyrazolo[3,4-d]pyrimidin-6-yl)phenyl]urea] | 700 |  |  |  | 
3 | 211 | 1000 |  | CNC(=O)Nc1ccc(-c2nc(N3CCOCC3)c3cnn(C4CCN(C)CC4)c3n2)cc1 [Compound 401, 1-methyl-3-{4-[1-(1-methylpiperidin-4-yl)-4-morpholin-4-yl-1H-pyrazolo[3,4-d]pyrimidin-6-yl]phenyl}urea] | 3800 |  |  |  | 
4 | 23 | 27 |  | CNC(=O)Nc1ccc(-c2nc(N3CCOCC3)c3cnn(C4CCN(CC(=O)c5ccccc5)CC4)c3n2)cc1 [Example 333, 1-methyl-3-(4-{4-morpholin-4-yl-1-[1-(2-oxo-2-phenylethyl)piperidin-4-yl]-1H-pyrazolo[3,4-d]pyrimidin-6-yl}phenyl)urea] | 200 |  |  |  | 
5 | 753 | 600 |  | COCCCNC(=O)Nc1ccc(-c2nc(N3CCOCC3)c3cnn(C4CCN(Cc5ccccc5)CC4)c3n2)cc1 [Compound 515, 1-{4-[1-(1-benzylpiperidin-4-yl)-4-morpholin-4-yl-1H-pyrazolo[3,4-d]pyrimidin-6-yl]phenyl}-3-(3-methoxypropyl)urea] | 3200 |  |  |  | 
6 | 1030 |  | > 60000 | O=C1Cc2cc(-c3nc(N4CCOCC4)c4cnn(-c5ccccc5)c4n3)ccc2N1 [Compound 677, 5-(4-morpholin-4-yl-1-phenyl-1H-pyrazolo[3,4-d]pyrimidin-6-yl)-1,3-dihydro-2H-indol-2-one] |  | > 60000 |  |  | 
7 | 352 | 1000 |  | COc1ccc(CN2CCC(n3ncc4c(N5CCOCC5)nc(-c5ccc6[nH]ccc6c5)nc43)CC2)cn1 [Compound 176] | 2600 |  |  |  | 
8 | 2620 | 430 |  | COC(=O)Nc1ccc(-c2nc(N3CCOCC3)c3cnn(C4CCN(C(=O)N(C)C)CC4)c3n2)cc1 [Compound 808, methyl (4-{1-[1-(dimethylcarbamoyl)piperidin-4-yl]-4-morpholin-4-yl-1H-pyrazolo[3,4-d]pyrimidin-6-yl}phenyl)carbamate] | 690 |  |  |  | 
9 | 34 | < 27 |  | O=C(Nc1ccncc1)Nc1ccc(-c2nc(N3CCOCC3)c3cnn(C4CCN(Cc5cccnc5)CC4)c3n2)cc1F [Compound 599, 1-(2-fluoro-4-{4-morpholin-4-yl-1-[1-(pyridin-3-ylmethyl)piperidin-4-yl]-1H-pyrazolo[3,4-d]pyrimidin-6-yl}phenyl)-3-pyridin-4-ylurea] | 82 |  |  |  | 
10 | 1690 | 450 |  | O=C(c1cccnc1Cl)N1CCC(n2ncc3c(N4CCOCC4)nc(-c4ccc5[nH]ccc5c4)nc32)CC1 [Example 195, 1-{1-[(2-chloropyridin-3-yl)carbonyl]piperidin-4-yl}-6-(1H-indol-5-yl)-4-morpholin-4-yl-1H-pyrazolo[3,4-d]pyrimidine] | 1000 |  |  |  | 
11 | 440 | 20000 |  | c1ccc(-n2ncc3c(N4CCOCC4)nc(-c4ccc5[nH]ncc5c4)nc32)cc1 [Example 432, 6-(1H-indazol-5-yl)-4-morpholin-4-yl-1-phenyl-1H-pyrazolo[3,4-d]pyrimidine] | 60000 |  |  |  | 
12 | 320 | 3200 |  | CN(C)CCCNC(=O)c1ccc(-c2nc(N3CCOCC3)c3cnn(-c4ccccc4)c3n2)cc1 [Compound 102] | 7500 |  |  |  | 
13 | 30 | < 0.8 |  | COCCNCCc1ccc(NC(=O)Nc2ccc(-c3nc(N4CCOCC4)c4cnn(C5CCN(C(=O)OC)CC5)c4n3)cc2)cc1 [Compound 922, methyl 4-[6-(4-{[(4-{2-[(2-methoxyethyl)amino]ethyl}phenyl)carbamoyl]amino}phenyl)-4-morpholin-4-yl-1H-pyrazolo[3,4-d]pyrimidin-1-yl]piperidine-1-carboxylate] | 90 |  |  |  | 
14 | 54 | 45 |  | CNC(=O)Nc1ccc(-c2nc(N3CCOCC3)c3cnn(C4CCN(C(=O)c5ccc(OC)cc5)CC4)c3n2)cc1 [Compound 609, 1-(4-{1-[1-(4-methoxybenzoyl)piperidin-4-yl]-4-morpholin-4-yl-1H-pyrazolo[3,4-d]pyrimidin-6-yl}phenyl)-3-methylurea] | 350 |  |  |  | 
15 | 63 | 27 |  | CNC(=O)Nc1ccc(-c2nc(N3CCOCC3)c3cnn(C4CCN(Cc5ccco5)CC4)c3n2)cc1 [Example 402, 1-(4-{1-[1-(2-furylmethyl)piperidin-4-yl]-4-morpholin-4-yl-1H-pyrazolo[3,4-d]pyrimidin-6-yl}phenyl)-3-methylurea] | 500 |  |  |  | 
16 | 314 | 60 |  | O=C(NCCF)Nc1ccc(-c2nc(N3CCOCC3)c3cnn(CC(F)(F)F)c3n2)cc1 [Compound 790, 1-(2-fluoroethyl)-3-{4-[4-morpholin-4-yl-1-(2,2,2-trifluoroethyl)-1H-pyrazolo[3,4-d]pyrimidin-6-yl]phenyl}urea] | 150 |  |  |  | 
17 | 45 | 103 |  | CNC(=O)Nc1ccc(-c2nc(N3CCOCC3)c3cnn(C4CCOCC4)c3n2)cc1 [Example 403, 1-methyl-3-{4-[4-morpholin-4-yl-1-(tetrahydro-2H-pyran-4-yl)-1H-pyrazolo[3,4-d]pyrimidin-6-yl]phenyl}urea] | 400 |  |  |  | 
18 | 82 | 200 |  | NC(=O)Nc1ccc(-c2nc(N3CCOCC3)c3cnn(C4CCN(Cc5cccnc5)CC4)c3n2)cc1 [Compound 558, 1-(4-{4-morpholin-4-yl-1-[1-(pyridin-3-ylmethyl)piperidin-4-yl]-1H-pyrazolo[3,4-d]pyrimidin-6-yl}phenyl)urea] | 200 |  |  |  | 
19 | 522 | 900 |  | Oc1cccc(CN2CCC(n3ncc4c(N5CCOCC5)nc(-c5ccc6[nH]ccc6c5)nc43)CC2)c1 [Example 76] | 1000 |  |  |  | 
20 | 100 | 47 |  | C=COC(=O)N1CCC(n2ncc3c(N4CCOCC4)nc(-c4ccc(NC(=O)NC)cc4)nc32)CC1 [Compound 753, vinyl 4-(6-{4-[(methylcarbamoyl)amino]phenyl}-4-morpholin-4-yl-1H-pyrazolo[3,4-d]pyrimidin-1-yl)piperidine-1-carboxylate] | 110 |  |  |  | 
21 | 12000 | 2500 |  | CC(C)OC(=O)N1CCC(n2ncc3c(N4CCOCC4)nc(-c4ccc(NC(=O)Nc5ccccn5)cc4)nc32)CC1 [Compound 837, isopropyl 4-(4-morpholin-4-yl-6-{4-[(pyridin-2-ylcarbamoyl)amino]phenyl}-1H-pyrazolo[3,4-d]pyrimidin-1-yl)piperidine-1-carboxylate] | 4600 |  |  |  | 
22 | 124 | 120 |  | CNC(=O)Nc1ccc(-c2nc(N3CCOCC3)c3cnn(C4CCN(C(=O)c5ccccn5)CC4)c3n2)cc1 [Example 418, 1-methyl-3-(4-{4-morpholin-4-yl-1-[1-(pyridin-2-ylcarbonyl)piperidin-4-yl]-1H-pyrazolo[3,4-d]pyrimidin-6-yl}phenyl)urea] | 200 |  |  |  | 
23 | 355 |  | < 27 | CCNC(=O)Nc1ccc(-c2nc(N3CCOCC3)c3cnn(C4CCN(C(=O)c5ccccc5)CC4)c3n2)cc1 [Compound 626, 1-{4-[1-(1-benzoylpiperidin-4-yl)-4-morpholin-4-yl-1H-pyrazolo[3,4-d]pyrimidin-6-yl]phenyl}-3-ethylurea] | 38 |  |  |  | 
24 | 87 | 50 |  | CCSC(=O)N1CCC(n2ncc3c(N4CCOCC4)nc(-c4ccc(NC(=O)NC)cc4)nc32)CC1 [Compound 762, S-ethyl 4-(6-{4-[(methylcarbamoyl)amino]phenyl}-4-morpholin-4-yl-1H-pyrazolo[3,4-d]pyrimidin-1-yl)piperidine-1-carbothioate] | 170 |  |  |  | 
25 | 2660 | 800 |  | NC(=O)CN1CCC(n2ncc3c(N4CCOCC4)nc(-c4ccc5[nH]ccc5c4)nc32)CC1 [Compound 495, 2-{4-[6-(1H-indol-5-yl)-4-morpholin-4-yl-1H-pyrazolo[3,4-d]pyrimidin-1-yl]piperidin-1-yl}acetamide] | 2800 |  |  |  | 
26 |  |  |  | CNC(=O)Oc1ccc(-c2nc(N3CCOCC3)c3cnn(C4CCN(C(=O)OC)CC4)c3n2)cc1 [Compound 946, methyl 4-(6-{4-[(methylcarbamoyl)oxy]phenyl}-4-morpholin-4-yl-1H-pyrazolo[3,4-d]pyrimidin-1-yl)piperidine-1-carboxylate] | 7000 |  |  | 13000 | 1600
27 | 8320 | 13000 |  | COC(=O)N1CCC(n2ncc3c(N4CCOC(C)C4)nc(-c4ccc(NC(=O)Nc5ccccn5)cc4)nc32)CC1 (stereo not drawn) [Compound 847, methyl 4-[4-(2-methylmorpholin-4-yl)-6-{4-[(pyridin-2-ylcarbamoyl)amino]phenyl}-1H-pyrazolo[3,4-d]pyrimidin-1-yl]piperidine-1-carboxylate] | 15000 |  |  |  | 

Row | SMILES | IC50 (PI3K; PI3Kα, read-out: PI3Kα IC50) [nM] | IC50 (prostate line LNCap; Homo sapiens, LNCaP, 72 h) [nM] | IC50 (prostate line LNCap) [nM] | IC50 (breast line MDA468; Homo sapiens, 72 h) [nM] | IC50 (breast line MDA468) [nM] | IC50 (PI3K; read-out: PI3Kα IC50, PI3Kα) [nM] | IC50 (PI3K; PI3Kα IC50, PI3Kα) [nM] | IC50 (prostate line LNCap; Homo sapiens, 72 h) [nM]
28 | O=C(Oc1ccccc1)N1CCC(n2ncc3c(N4CCOCC4)nc(-c4ccc5[nH]ccc5c4)nc32)CC1 [Compound 493, phenyl 4-[6-(1H-indol-5-yl)-4-morpholin-4-yl-1H-pyrazolo[3,4-d]pyrimidin-1-yl]piperidine-1-carboxylate] |  |  | 1300 |  | 4300 | 535 |  | 
